# In ChEMBL document CHEMBL1201861, “Genomics of Drug Sensitity in Cancer screening data, Wellcome Trust Sanger Institute”:
# pIC50: −log10 of the molar value.
# How the values were obtained:
# Assay in all cases: cells
# [1] = system: NB69; type: functional, cell-based, Homo sapiens; details: Homo sapiens, NB69;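 further: growth inhibition of NB69 cells, determined by a cell viability assay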
# [2] = system: CW-2; type: functional, cell-based, Homo sapiens; details: Homo sapiens, CW-2;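 further: growth inhibition of CW-2 cells, read out by a cell viability assay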
# [3] = system: NB10; type: functional, cell-based, Homo sapiens; details: Homo sapiens, NB10;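 further: growth inhibition of NB10 cells, read out by a cell viability assay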
# [4] = system: NCI-H510A; type: functional, cell-based; details: Homo sapiens;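 further: growth inhibition of NCI-H510A cells, read out with a cell viability assay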
# [5] = system: COLO-320-HSR; type: functional, cell-based; details: Homo sapiens;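 further: growth inhibition of COLO-320-HSR cells, determined with a cell viability assay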
# [6] = system: ML-2; type: functional, cell-based; details: Homo sapiens;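 further: growth inhibition of ML-2 cells, measured with a cell viability readout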
# [7] = system: SK-MEL3; type: functional, cell-based, Homo sapiens, SK-MEL-3; details: Homo sapiens, SK-MEL3;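 further: growth inhibition of human SK-MEL-3 cells, read out with a cell viability assay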
# [8] = system: SW1710; type: functional, cell-based, Homo sapiens; details: Homo sapiens, SW1710;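 further: growth inhibition of SW1710 cells, determined with a cell viability assay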
# [9] = system: D-542MG; type: functional, cell-based, Homo sapiens; details: Homo sapiens, D-542MG
# [10] = system: HPAF-II; type: functional, cell-based, Homo sapiens; details: Homo sapiens, HPAF-II;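 further: growth inhibition of HPAF-II cells, read out with a cell viability assay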
# [11] = system: UMUC3; type: functional, cell-based, Homo sapiens; details: Homo sapiens, UMUC3;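 further: growth inhibition of human UM-UC-3 cells, read out with a cell viability assay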
# [12] = system: NB13; type: functional, cell-based, Homo sapiens; details: Homo sapiens, NB13;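 further: cell viability readout measuring growth inhibition of human NB13 cells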
# [13] = system: KP-N-YN; type: functional, cell-based; details: Homo sapiens;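 further: growth inhibition of KP-N-YN cells, read out with a cell viability assay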
# [14] = system: Detroit 562; type: functional, cell-based, Homo sapiens; details: Homo sapiens, Detroit 562;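 further: growth inhibition of human Detroit 562 cells, read out by a cell viability assay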
# [15] = system: NB6; type: functional, cell-based, Homo sapiens; details: Homo sapiens, NB6;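 further: growth inhibition of NB6 cells, read out by a cell viability assay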
# [16] = system: HT-144; type: functional, cell-based, Homo sapiens; details: Homo sapiens, HT-144
# [17] = system: HCC38; type: functional, cell-based, Homo sapiens; details: Homo sapiens, HCC38;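 further: cell viability assay on the human HCC38 cell line, with IC50 marking the concentration that inhibits cell growth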
# [18] = system: SW1463; type: functional, cell-based, Homo sapiens; details: Homo sapiens, SW1463;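 further: growth inhibition of SW1463 cells, determined with a cell viability assay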
# [19] = system: LS-513; type: functional, cell-based, Homo sapiens; details: Homo sapiens, LS-513
# [20] = system: NCI-H526; type: functional, cell-based; details: Homo sapiens;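 further: growth inhibition of the human NCI-H526 cell line, measured by a cell viability assay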
# [21] = system: 639-V; type: functional, cell-based, Homo sapiens; details: Homo sapiens, 639-V;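 further: growth inhibition of 639-V cells, read out with a cell viability assay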
# [22] = system: SK-MES-1; type: functional, cell-based, Homo sapiens; details: Homo sapiens, SK-MES-1;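 further: growth inhibition of human SK-MES-1 cells, read out with a cell viability assay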
# [23] = system: CAS-1; type: functional, cell-based, Homo sapiens; details: Homo sapiens, CAS-1;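 further: growth inhibition of CAS-1 cells, measured with a cell viability assay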
# [24] = system: COLO-678; type: functional, cell-based, Homo sapiens; details: Homo sapiens, COLO-678
# [25] = system: L-428; type: functional, cell-based; details: Homo sapiens
# [26] = system: CAL-27; type: functional, cell-based, Homo sapiens; details: Homo sapiens, CAL-27;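 further: Viability-based readout, IC50 reflecting inhibition of CAL-27 cell growth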
# [27] = system: QIMR-WIL; type: functional, cell-based; details: Homo sapiens;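 further: growth inhibition of QIMR-WIL cells, read out with a cell viability assay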
# [28] = system: KU-19-19; type: functional, cell-based, Homo sapiens; details: Homo sapiens, KU-19-19
# [29] = system: SCH; type: functional, cell-based, Homo sapiens; details: Homo sapiens, SCH;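 further: growth inhibition of human SCH cells, read out in a cell viability assay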
# [30] = system: JEG-3; type: functional, cell-based, Homo sapiens; details: Homo sapiens, JEG-3;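 further: growth inhibition of human JEG-3 cells, read out with a cell viability assay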
# [31] = system: EW-3; type: functional, cell-based; details: Homo sapiens;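 further: cell viability assay read-out, IC50 reflects inhibition of growth of the EW-3 cells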
# [32] = system: SK-MEL-24; type: functional, cell-based; details: Homo sapiens;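 further: growth inhibition read out by a cell viability assay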
# [33] = system: FTC-133; type: functional, cell-based, Homo sapiens; details: Homo sapiens, FTC-133
# [34] = system: SK-MEL-30; type: functional, cell-based; details: Homo sapiens;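 further: growth inhibition of SK-MEL-30 cells, determined with a cell viability assay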
# [35] = system: NCI-H2052; type: functional, cell-based, Homo sapiens; details: Homo sapiens, NCI-H2052;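 further: growth inhibition of NCI-H2052 cells, read out with a cell viability assay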
# [36] = system: NCI-H69; type: functional, cell-based; details: Homo sapiens;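 further: growth inhibition of the cell line, read out with a cell viability assay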
# [37] = system: NCI-H441; type: functional, cell-based; details: Homo sapiens;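 further: growth inhibition of NCI-H441 cells, read out with a cell viability assay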
# [38] = system: C3A; type: functional, cell-based, Homo sapiens; details: Homo sapiens, C3A;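 further: growth inhibition of C3A human cells, quantified with a cell viability readout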
# [39] = system: VM-CUB-1; type: functional, cell-based; details: Homo sapiens;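 further: cell viability assay measuring growth inhibition of the human VM-CUB-1 cell line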
# [40] = system: NCI-H1650; type: functional, cell-based, Homo sapiens; details: Homo sapiens, NCI-H1650;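 further: growth inhibition of human NCI-H1650 cells measured by a cell viability assay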
# [41] = system: MFE-280; type: functional, cell-based, Homo sapiens; details: Homo sapiens, MFE-280;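 further: growth inhibition of MFE-280 cells, determined with a cell viability readout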
# [42] = system: SW1088; type: functional, cell-based, Homo sapiens; details: Homo sapiens, SW1088;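 further: growth inhibition of human SW1088 cells, read out by a cell viability assay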
# [43] = system: T47D; type: functional, cell-based, Homo sapiens; details: Homo sapiens, T47D;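 further: growth inhibition of human T47D cells, measured with a cell viability assay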
# [44] = system: HOS; type: functional, cell-based, Homo sapiens; details: Homo sapiens, HOS;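 further: growth inhibition of human HOS cells, read out with a cell viability assay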
# [45] = system: U-118-MG; type: functional, cell-based, Homo sapiens; details: Homo sapiens, U-118-MG
# [46] = system: 5637; type: functional, cell-based, Homo sapiens; details: Homo sapiens
# [47] = system: GAK; type: functional, cell-based, Homo sapiens; details: Homo sapiens, GAK;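 further: cell growth inhibition read out by a cell viability assay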
# [48] = system: L-363; type: functional, cell-based; details: Homo sapiens
# [49] = system: HCT-116; type: functional, cell-based, Homo sapiens; details: Homo sapiens, HCT-116
# [50] = system: OMC-1; type: functional, cell-based, Homo sapiens; details: Homo sapiens, OMC-1;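 further: growth inhibition of the OMC-1 cell line, measured by a cell viability assay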
# [51] = system: GOTO; type: functional, cell-based, Homo sapiens; details: Homo sapiens, GOTO;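 further: growth inhibition of GOTO cells, read out by a cell viability assay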
# [52] = system: 769-P; type: functional, cell-based, Homo sapiens; details: Homo sapiens, 769-P
structure (smiles),measurement,setting,value
CN(C)C/C=C/C(=O)Nc1cc2c(Nc3ccc(F)c(Cl)c3)ncnc2cc1O[C@H]1CCOC1 [AFATINIB],pIC50,[1],< 6.30
same,pIC50,[2],6.33
same,pIC50,[3],< 6.30
same,pIC50,[4],< 6.30
same,pIC50,[5],< 6.30
same,pIC50,[6],6.61
same,pIC50,[7],< 6.30
same,pIC50,[8],< 6.30
same,pIC50,[9],< 6.30
same,pIC50,[10],< 6.30
same,pIC50,[11],< 6.30
same,pIC50,[12],< 6.30
same,pIC50,[13],< 6.30
same,pIC50,[14],< 6.30
same,pIC50,[15],< 6.30
same,pIC50,[16],< 6.30
same,pIC50,[17],< 6.30
same,pIC50,[18],< 6.30
same,pIC50,[19],< 6.30
same,pIC50,[20],7.11
same,pIC50,[21],< 6.30
same,pIC50,[22],< 6.30
same,pIC50,[23],< 6.30
same,pIC50,[24],< 6.30
same,pIC50,[25],< 6.30
same,pIC50,[26],6.75
same,pIC50,[27],< 6.30
same,pIC50,[28],< 6.30
same,pIC50,[29],< 6.30
same,pIC50,[30],< 6.30
same,pIC50,[31],< 6.30
same,pIC50,[32],< 6.30
same,pIC50,[33],< 6.30
same,pIC50,[34],< 6.30
same,pIC50,[35],< 6.30
same,pIC50,[36],6.67
same,pIC50,[37],< 6.30
same,pIC50,[38],< 6.30
same,pIC50,[39],< 6.30
same,pIC50,[40],< 6.30
same,pIC50,[41],< 6.30
same,pIC50,[42],< 6.30
same,pIC50,[43],< 6.30
same,pIC50,[44],< 6.30
same,pIC50,[45],< 6.30
same,pIC50,[46],< 6.30
same,pIC50,[48],< 6.30
same,pIC50,[49],< 6.30
same,pIC50,[50],< 6.30
same,pIC50,[51],< 6.30
same,pIC50,[52],< 6.30
CC(=O)O[C@@]12CO[C@@H]1C[C@H](O)[C@@]1(C)C(=O)[C@H](O)C3=C(C)[C@@H](OC(=O)[C@H](O)[C@@H](NC(=O)OC(C)(C)C)c4ccccc4)C[C@@](O)([C@@H](OC(=O)c4ccccc4)[C@H]21)C3(C)C [DOCETAXEL],pIC50,[1],8.20
same,pIC50,[2],< 8.00
same,pIC50,[3],< 8.00
same,pIC50,[4],9.47
same,pIC50,[5],< 8.00
same,pIC50,[6],< 8.00
same,pIC50,[7],< 8.00
same,pIC50,[8],9.33
same,pIC50,[9],< 8.00
same,pIC50,[10],8.03
same,pIC50,[11],< 8.00
same,pIC50,[12],8.97
same,pIC50,[13],< 8.00
same,pIC50,[14],9.05
same,pIC50,[15],< 8.00
same,pIC50,[16],9.80
same,pIC50,[17],8.22
same,pIC50,[18],< 8.00
same,pIC50,[19],< 8.00
same,pIC50,[20],8.75
same,pIC50,[21],9.19
same,pIC50,[22],8.63
same,pIC50,[23],< 8.00
same,pIC50,[24],< 8.00
same,pIC50,[25],< 8.00
same,pIC50,[26],9.47
same,pIC50,[27],8.36
same,pIC50,[28],< 8.00
same,pIC50,[29],8.09
same,pIC50,[30],8.55
same,pIC50,[31],9.13
same,pIC50,[32],< 8.00
same,pIC50,[33],9.31
same,pIC50,[34],8.14
same,pIC50,[35],8.14
same,pIC50,[36],< 8.00
same,pIC50,[37],< 8.00
same,pIC50,[38],< 8.00
same,pIC50,[39],8.98
same,pIC50,[40],< 8.00
same,pIC50,[41],< 8.00
same,pIC50,[42],8.53
same,pIC50,[43],8.37
same,pIC50,[44],9.11
same,pIC50,[45],< 8.00
same,pIC50,[46],9.84
same,pIC50,[47],< 8.00
same,pIC50,[48],8.42
same,pIC50,[49],8.74
same,pIC50,[50],8.04
same,pIC50,[51],8.64
same,pIC50,[52],< 8.00
